Results reported in patent US10301272B2, “Carboxamide or sulfonamide substituted thiazoles and related derivatives as modulators for the orphan nuclear receptor ROR[γ]” (Phenex Pharmaceuticals AG, priority 2012, dated 2019).
Read-outs that look alike come from different tables or passages of the source.

Columns and labels:
[1] = target: RORγ ligand binding domain (LBD) (Homo sapiens (Human), UniProt P51449); assay: TR-FRET Activity Assay (ligand sensing assay, LANCE); settings: for pIC50 (FRET): TR-FRET, interaction of RORγ-LBD with coactivator peptide
Chain of RORγ ligand binding domain (LBD) (P51449 269-508): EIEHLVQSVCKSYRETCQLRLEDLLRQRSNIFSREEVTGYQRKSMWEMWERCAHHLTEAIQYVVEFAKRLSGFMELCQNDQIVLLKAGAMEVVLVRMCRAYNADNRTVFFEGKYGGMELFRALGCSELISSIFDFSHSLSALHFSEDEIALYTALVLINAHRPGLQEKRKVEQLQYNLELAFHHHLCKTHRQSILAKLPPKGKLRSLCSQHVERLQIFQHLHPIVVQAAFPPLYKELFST

RORγ = RORγ (Homo sapiens, UniProt P51449); assay: RORγ Gal4 Reporter Gene Assay; type: cell-based
Chain of RORγ (P51449 whole entry, looked up, the tested form may be a part): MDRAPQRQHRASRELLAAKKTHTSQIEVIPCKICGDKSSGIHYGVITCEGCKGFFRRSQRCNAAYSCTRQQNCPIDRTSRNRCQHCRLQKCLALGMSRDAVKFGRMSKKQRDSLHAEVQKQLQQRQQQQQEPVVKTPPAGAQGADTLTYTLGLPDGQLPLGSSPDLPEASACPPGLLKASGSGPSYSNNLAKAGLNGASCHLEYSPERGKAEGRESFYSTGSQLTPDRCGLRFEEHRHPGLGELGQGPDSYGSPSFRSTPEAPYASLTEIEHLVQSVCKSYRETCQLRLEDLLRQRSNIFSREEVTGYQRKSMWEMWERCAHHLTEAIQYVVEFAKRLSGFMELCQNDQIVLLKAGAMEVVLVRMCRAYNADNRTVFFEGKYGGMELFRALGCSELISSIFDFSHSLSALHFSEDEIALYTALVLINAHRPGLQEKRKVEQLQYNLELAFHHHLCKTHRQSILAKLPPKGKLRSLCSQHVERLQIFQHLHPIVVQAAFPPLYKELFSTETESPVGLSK
In short: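 Cells at 5×10^5/well were transfected with RORγ fragments fused to the GAL4 DNA-binding domain (CMV promoter), a 5×GAL4-site firefly luciferase reporter and CMV-Renilla luciferase for normalization. About 4 h later serum-free MEM and compound were added (vehicle ≤0.1%). Cultures at 37 °C, 5% CO2; at least triplicates.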

| Structure (SMILES) | pIC50 (FRET) [1] | pIC50 (FF) (RORγ) | pIC50 (REN) (RORγ) | IC50 [1] [µM] | pIC50 (FF) (RORγ; firefly (FF) luciferase, 293T cells) | pIC50 (REN) (RORγ; renilla normalised (RENnorm) luciferase, 293T cells) | IC50 (RORγ; firefly (FF) luciferase, 293T cells, read-out: pIC50 (FF) (converted)) [µM] | IC50 (RORγ; renilla normalised (RENnorm) luciferase, 293T cells, read-out: pIC50 (REN) (converted)) [µM] |
| --- | --- | --- | --- | --- | --- | --- | --- | --- |
| CC(C)(C)NS(=O)(=O)c1ccc(-c2sc(C(=O)NCC3(C(N)=O)CCOCC3)nc2CC2CCCCC2)c2ccccc12 [6/3] | 6.5/8.5/8.7 | 6.5/8.5/8.7 | 6.5/8.5/8.7 | – | – | – | – | – |
| CC(C)(C)NC(=O)c1ccc(-c2sc(C(=O)NC3CCS(=O)(=O)CC3)nc2CC2CCCCC2)c2ccccc12 [7/25] | 6.2/6.6/6.5 | 6.2/6.6/6.5 | 6.2/6.6/6.5 | – | – | – | – | – |
| CC(C)(C)NS(=O)(=O)c1ccc(-c2sc(C(=O)NC3CCS(=O)(=O)CC3)nc2CC2CCCCC2)c(Cl)c1Cl [6/43] | 7.0/8.7/8.7 | 7.0/8.7/8.7 | 7.0/8.7/8.7 | – | – | – | – | – |
| COC(=O)C(C)(C)CCNC(=O)c1nc(CC2CCCCC2)c(-c2cc(C(C)(C)C)cc(C3(C)CC3)c2)s1 [Example 6, Methyl 4-(5-(3-(tert-butyl)-5-(1-methylcyclopropyl)phenyl)-4-(cyclohexylmethyl)thiazole-2-carboxamido)-2,2-dimethylbutanoate] | 6.7/6.2/6.3 | 6.7/6.2/6.3 | 6.7/6.2/6.3 | – | – | – | – | – |
| CC(C)(C)NS(=O)(=O)c1ccc(-c2oc(C(=O)NC3CCC(C)(C(=O)O)CC3)nc2CC2CCCCC2)c2ccccc12 (stereo not drawn) [100/22] | 5.9/6.8/7.0 | 5.9/6.8/7.0 | 5.9/6.8/7.0 | – | – | – | – | – |
| CC(C)(C)NS(=O)(=O)c1ccc(-c2sc(C(=O)N[C@H]3C[C@H](C(=O)O)C3)nc2CC2CCCCC2)c(F)c1C(F)F [7/15] | 6.7/8.7/8.5 | 6.7/8.7/8.5 | 6.7/8.7/8.5 | – | – | – | – | – |
| CC(C)(C)NS(=O)(=O)c1ccc(-c2sc(C(=O)N[C@H]3C[C@H](C(=O)O)C3)nc2CC2CCCCC2)c(Cl)c1C(F)(F)F [7/12] | 6.2/8.0/8.2 | 6.2/8.0/8.2 | 6.2/8.0/8.2 | – | – | – | – | – |
| CC(C)(C)NS(=O)(=O)c1ccc(-c2sc(C(=O)N[C@H]3C[C@H](C(=O)O)C3)nc2CC2CCCCC2)cc1C(C)(C)O [7/17] | 6.5/8.0/8.0 | 6.5/8.0/8.0 | 6.5/8.0/8.0 | – | – | – | – | – |
| CC(C)(C)NS(=O)(=O)c1ccc(-c2sc(C(=O)NC3CCC(C(=O)O)C3)nc2CC2CCCCC2)c2ccccc12 (stereo not drawn) [6/51] | 6.3/8.4/8.4 | 6.3/8.4/8.4 | 6.3/8.4/8.4 | – | – | – | – | – |
| Cc1c(S(=O)(=O)NC(C)(C)C)ccc(-c2sc(C(=O)N[C@H]3C[C@H](C(=O)O)C3)nc2CC2CCCCC2)c1C(F)(F)F [7/14] | 5.8/8.5/8.7 | 5.8/8.5/8.7 | 5.8/8.5/8.7 | – | – | – | – | – |
| CC(C)(CO)NS(=O)(=O)c1ccc(-c2sc(C(=O)N3CC4(CCS(=O)(=O)CC4)C3)nc2CC2CCCCC2)c2ccccc12 [Example 14/1] | 6.2/7.1/7.1 | 6.2/7.1/7.1 | 6.2/7.1/7.1 | – | – | – | – | – |
| CC(C)(O)CNC(=O)c1nc(CC2CCC2)c(-c2ccc(S(=O)(=O)NC(C)(C)C)c3ccccc23)s1 [21/2] | 6.8/8.4/8.5 | 6.8/8.4/8.5 | 6.8/8.4/8.5 | – | – | – | – | – |
| CC(C)(C)NS(=O)(=O)c1ccc(-c2oc(C(=O)N[C@H]3C[C@H](C(=O)O)C3)nc2CC2CCCCC2)c2ccccc12 [100/13] | 6.1/7.0/7.1 | 6.1/7.0/7.1 | 6.1/7.0/7.1 | – | – | – | – | – |
| CC(C)(O)CNC(=O)c1nc(CC2CCCCC2)c(-c2ccc(S(=O)(=O)NC(C)(C)C)c(Cl)c2Cl)o1 [100/15] | 6.4/7.4/7.5 | 6.4/7.4/7.5 | 6.4/7.4/7.5 | – | – | – | – | – |
| CC(C)(O)CNC(=O)c1nc(CC2CCCCC2)c(-c2ccc(S(=O)(=O)NC3(C(N)=O)CC3)c3ccccc23)s1 [8/3] | 6.4/7.5/7.6 | 6.4/7.5/7.6 | 6.4/7.5/7.6 | – | – | – | – | – |
| CC(C)(C)c1cc(-c2sc(C(=O)NC3CCOCC3)nc2CC2CCCCC2)cc(C2(C)CC2)c1 [Example 8, 5-(3-(tert-Butyl)-5-(1-methylcyclopropyl)phenyl)-4-(cyclohexylmethyl)-N-(tetrahydro-2H-pyran-4-yl)thiazole-2-carboxamide] | 7.0/7.3/7.5 | 7.0/7.3/7.5 | 7.0/7.3/7.5 | – | – | – | – | – |
| O=C(NC1CCS(=O)(=O)CC1)c1nc(CC2CCCCC2)c(-c2ccc(N3CCOCC3)c3ccccc23)s1 [7/27] | 6.5 | 6.5/6.9/6.9 | 6.5/6.9/6.9 | – | – | – | – | – |
| CC(C)(C)NS(=O)(=O)c1ccc(-c2sc(C(=O)N[C@H]3C[C@H](C(=O)O)C3)nc2CC2CCCCC2)c(F)c1OC(F)(F)F [19/10] | 6.7/8.4/8.5 | 6.7/8.4/8.5 | 6.7/8.4/8.5 | – | – | – | – | – |
| CC(C)(C)NC(=O)c1cc(-c2sc(C(=O)N[C@H]3C[C@H](C(=O)O)C3)nc2CC2CCCCC2)cc(C(C)(C)C)c1 [9/7] | 6.2/7.4/7.5 | 6.2/7.4/7.5 | 6.2/7.4/7.5 | – | – | – | – | – |
| CC(C)(O)CNC(=O)c1nc(CC2CCCCC2)c(-c2ccc(S(=O)(=O)NC(C)(C)C)c(C(C)(C)O)c2)s1 [6/23] | 6.6/7.5/7.6 | 6.6/7.5/7.6 | 6.6/7.5/7.6 | – | – | – | – | – |
| CC1(c2cc(C(=O)NCC(F)(F)F)cc(-c3sc(C(=O)N[C@H]4C[C@H](C(=O)O)C4)nc3CC3CCCCC3)c2)CC1 [7/6] | 6.2/7.1/7.2 | 6.2/7.1/7.2 | 6.2/7.1/7.2 | – | – | – | – | – |
| CC(C)(C)c1cc(-c2sc(C(=O)N[C@H]3C[C@H](C(=O)O)C3)[n+]([O-])c2CC2CCCCC2)cc(C(C)(C)C)n1 [Example 22, 2-(((trans)-3-Carboxycyclobutyl)carbamoyl)-4-(cyclohexylmethyl)-5-(2,6-di-tert-butylpyridin-4-yl)thiazole 3-oxide] | – | – | – | 0.398 | 7.1 | 7.1 | – | – |
| CC(=O)NS(=O)(=O)c1nc(-c2cc(C(C)(C)C)cc(C(C)(C)C)c2)c(CC2CCCCC2)s1 [Example 3, N-((5-(Cyclohexylmethyl)-4-(3,5-di-tert-butylphenyl)thiazol-2-yl)sulfonyl)acetamide] | 5.1 | – | – | – | – | – | > 20 | > 20 |
| CC(C)(C)NS(=O)(=O)c1ccc(-c2sc(C(=O)N[C@H]3C[C@H](S(C)(=O)=O)C3)nc2CC2CCCCC2)c(Cl)c1Cl [6/41] | 7.3/8.0/8.2 | 7.3/8.0/8.2 | 7.3/8.0/8.2 | – | – | – | – | – |
| CC(C)(C)NS(=O)(=O)c1ccc(-c2sc(C(=O)NCc3ncc(S(C)(=O)=O)s3)nc2CC2CCCCC2)c(Cl)c1Cl [15/7] | 7.2/8.3/8.4 | 7.2/8.3/8.4 | 7.2/8.3/8.4 | – | – | – | – | – |
| COCC(C)(C)NS(=O)(=O)c1ccc(-c2sc(C(=O)N3CC4(CCS(=O)(=O)CC4)C3)nc2CC2CCCCC2)c2ccccc12 [14/2] | 6.5/7.4/7.4 | 6.5/7.4/7.4 | 6.5/7.4/7.4 | – | – | – | – | – |
| CC(C)(C)NS(=O)(=O)c1ccc(-c2sc(C(=O)NC3CS(=O)(=O)C3)nc2CC2CCCCC2)c(Cl)c1Cl [15/4] | 7.3/8.7/9.0 | 7.3/8.7/9.0 | 7.3/8.7/9.0 | – | – | – | – | – |
| CC(C)(O)CNC(=O)c1nc(CC2CCCCC2)c(-c2ccc(S(=O)(=O)NC(C)(C)C)c(Cl)c2OC(F)F)s1 [21/4] | 6.9/8.2/8.4 | 6.9/8.2/8.4 | 6.9/8.2/8.4 | – | – | – | – | – |
